Measured values as given in paper PMC11477294, “In Vitro Profiling of the Antiviral Peptide TAT-I24” (International Journal of Molecular Sciences, 2024).
Where a SMILES comes first, the peptide text is derived from it.

Tests used:
[1] = system: MCMV strain delm157-luc rep; format: cell-based, mouse cytomegalovirus; conditions: luciferase reporter gene expression in NIH/3T3 cells infected with replication-competent MCMV, MOI 0.5, 72 h post-infection; 1:3 dilution series; non-linear regression; n = 9
Experimental: NIH/3T3 cells were seeded at a density of 2 × 10^4 cells/100 µL per well in a 96-well plate (Sarstedt, Germany) and allowed to attach overnight. On the next day, cells were treated with a 1:3 dilutions series of peptides and, without further pre-incubation, subsequently infected with the MCMV strain delm157-luc rep. The MCMV stock was prepared and quantified as previously described. The virus (MOI 0.5 for luc assays; for other assays, see the specific descriptions) was adsorbed to cells with the aid of centrifugal enhancement twice at 800× g for 15 min at room temperature and incubated at 37 °C for the indicated times. For the luciferase assays, the infected cells were lysed 72 h post-infection using 20 µL Cell Culture Lysis Reagent (Promega, Mannheim, Germany). From the lysates, 10 µL was transferred to white 96-well plates, and luciferase was recorded using a Luciferase Assay System and a GloMax®-Multi Detection System (Promega, Mannheim, Germany).

[2] = target: dsDNA (pcDNA3.1 (+) plasmid); experiment: DNA binding assay (SYBR Gold fluorescence reduction); conditions: reduction of fluorescence of SYBR Gold bound to pcDNA3.1 (+) plasmid (100 ng); non-linear regression; n = 8
Experimental: DNA-binding of the peptides was analyzed using an assay based on the reduction of the fluorescence of DNA-bound SYBR^TM Gold dye in the presence of peptide. […] The selectivity index (SI), that is, the ratio between CC50 and IC50, was calculated for all peptides tested in HEK293 cells, except for C22del and C22del_cyc, for which the CC50 could not be calculated from the results of the cell viability assay (Table 1, Supplementary Figure S1).
DNA binding was detected using an assay based on reduction of fluorescence emitted by SYBR^TM Gold (ThermoFisher, Darmstadt, Germany) bound to dsDNA in the presence of peptides using the pcDNA3.1 (+) plasmid (100 ng), as described previously.

[3] = system: human red blood cells (RBCs); experiment: Hemolysis assay with red blood cells; format: cell-based; conditions: 1 h at 37 °C
Experimental: Blood from healthy volunteers was collected by venipuncture (Greiner Bio-One, Kremsmünster, Austria) into K2E K2EDTA VacuetteTM tubes (Greiner Bio-One, Kremsmünster, Austria) with 4 mL blood. The assay for hemolysis was adapted from Sæbo et al.. Blood was centrifuged at 1000× g for 10 min, and plasma was kept for further use. Red blood cells were then resuspended in 10 mL PBS and centrifuged again at 1000× g for a total of three times. Cells were then counted using a hemocytometer and seeded at a cell number of 1 × 10^7 cells/100 µL PBS per well in conical 96-well plates (ThermoFisher, Darmstadt, Germany). Next, 1:2 peptide dilutions starting from 40 µM either in PBS or 10% donor serum were prepared, and 100 µL was added to 100 µL of RBC. Plates were then incubated for one hour at 37 °C. As the positive control, three wells with 100 µL RBCs were treated with 100 µL PBS + 0.5% Triton X-100. After incubation, plates were centrifuged at 1000× g for 5 min and supernatants were transferred to flat 96-well plates. Optical density (OD) was determined at 450 nm using a GloMax®-Multi Detection System (Promega, Mannheim, Germany). Images from RBCs from light microscopy and centrifuged plates were taken using an iPhone 12 mini.

[4] = system: MCMV m123/ie-1 transcript; experiment: m123/ie-1 transcript qPCR in MCMV-infected NIH/3T3 cells; format: cell-based, mouse cytomegalovirus; conditions: MCMV MOI 1, two hours post-infection, duplicate treatments
Experimental: NIH/3T3 cells were seeded at a density of 2 × 10^4 cells/250 µL per well in a 48-well plate and allowed to attach overnight at 37 °C. On the next day, cells were treated with peptides at the indicated concentrations and infected with MCMV at an MOI of 1 with the aid of centrifugal enhancement, twice at 800× g for 15 min. Cells were then returned to 37 °C for two hours before cell lysis for further processing. RNA isolation, DNase digestion, cDNA reaction and qPCR were performed, as described previously.

DiO-labeled MCMV = experiment: Entry of DiO-labeled MCMV (microscopy); format: cell-based, mouse cytomegalovirus; conditions: 10 µM peptide, NIH/3T3 cells, 120 min post-infection, MOI approximately 5
Experimental: DiO labeling was performed by incubation of MCMV (2 × 10^7 pfu) with 5 µL of Vybrant™ DiO Cell-Labeling Solution in 300 µL cell culture medium supplemented with 10% FCS for 20 min at 37 °C. After that, the virus was precipitated overnight at 4 °C by addition of 600 µL autoclaved solution of polyethylene glycol/sodium chloride (30% (w/v) PEG-8000 (Sigma Aldrich, Schnelldorf, Germany), 10.5% NaCl (w/v) in PBS, followed by centrifugation on the next day for one hour at 1600× g at 4 °C. Supernatants were discarded, and the precipitated virus was resuspended in 500 µL cell culture medium supplemented with 10% FCS, aliquoted and stored at −80 °C.
NIH/3T3 cells were seeded at a density of 2 × 10^4 cells/250 µL per well in ibiTreat 8-well chambers (ibidi, Germany) and allowed to attach overnight at 37 °C. On the next day, cells were treated with peptides and infected with DiO-labeled MCMV corresponding to an MOI of approximately 5 with the aid of centrifugal enhancement, twice at 800× g for 15 min. After 2 h of incubation, cells were washed twice with PBS and fixed with 5% formaldehyde for 1 h at room temperature. Then, cells were stained with DAPI for 15 min, as described above. […]

cells = conditions: not associated with cell toxicity; cited from earlier work

CC(C)C[C@H](NC(=O)[C@H](CS)NC(=O)[C@H](CCC(N)=O)NC(=O)[C@@H]1CCCN1C(=O)[C@@H]1CCCN1C(=O)[C@H](CCCNC(=N)N)NC(=O)[C@H](CCCNC(=N)N)NC(=O)[C@H](CCCNC(=N)N)NC(=O)[C@H](CCC(N)=O)NC(=O)[C@H](CCCNC(=N)N)NC(=O)[C@H](CCCNC(=N)N)NC(=O)[C@H](CCCCN)NC(=O)[C@H](CCCCN)NC(=O)[C@H](CCCNC(=N)N)NC(=O)CN)C(=O)N[C@@H](C)C(=O)N[C@@H](Cc1ccccc1)C(=O)N[C@@H](Cc1ccc(O)cc1)C(=O)N[C@@H](C)C(=O)N[C@@H](CS)C(=O)N[C@@H](Cc1ccccc1)C(=O)N[C@@H](CS)C(=O)O [TAT-I24] (H-GRKKRRQRRRPPQCLAFYACFC-OH)
IC50 [1]: 910 nM | IC50 [2]: 1010 nM | hemolysis of human RBCs ([3]; peptide dilutions in PBS or PBS + 10% donor serum, concentrations < 20 µM (1:2 dilutions), OD 450 nm of supernatants, n = 6): neither induce hemolysis | swelling of RBCs (pellet size after centrifugation) ([3]; peptide dilutions prepared in PBS, up to 20 µM): Swelling of red blood cells | m123/ie-1 transcript levels relative to infected cells without peptides ([4]; 1 µM peptide): significantly reduced | m123/ie-1 transcript levels relative to infected cells without peptides ([4]; 10 µM peptide): significantly reduced | organization of fluorescent signal of DiO-labeled MCMV in cells (DiO-labeled MCMV): less perinuclear organization and was more dispersed in the whole cytoplasm | concentration with morphological changes such as cell aggregation (cells): > 10 µM
